Results: article PMC4515243, “Phase 1 pharmacokinetic study of the oral pan-AKT inhibitor MK-2206 in Japanese patients with advanced solid tumors” (Cancer Chemotherapy and Pharmacology, 2015)

Tested on: Japanese patients with advanced solid tumors
Test: phase 1 safety and tolerability (DLT, adverse events) in Japanese patients;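 further: toxicities graded by NCI CTCAE version 3.0, treatment given until disease progression or unacceptable toxicity, three to nine patients enrolled per dose level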
[1] = 60 mg QOD, grade 3 mucosal inflammation

Excerpt: Treatment was continued until disease progression or the occurrence of an unacceptable toxicity.
A minimum of three and up to nine patients were enrolled at each dose level based on the toxicity probability intervals [9].
Adverse events were graded using the National Cancer Institute Common Terminology Criteria for Adverse Events, version 3.0.

NC1(c2ccc(-c3nc4ccn5c(=O)[nH]nc5c4cc3-c3ccccc3)cc2)CCC1 [MK-2206]
ALT increased, drug-related adverse event, patients (45 mg QOD (n = 3), All grades): 0
Blood creatinine increased, drug-related adverse event, patients (45 mg QOD (n = 3), All grades): 1
Decreased appetite, drug-related adverse event, patients (45 mg QOD (n = 3), All grades): 1
Diarrhea, drug-related adverse event, patients (45 mg QOD (n = 3), All grades): 1
Dry skin, drug-related adverse event, patients (45 mg QOD (n = 3), All grades): 2
Eosinophil count increased, drug-related adverse event, patients (45 mg QOD (n = 3), All grades): 0
Eosinophilia, drug-related adverse event, patients (45 mg QOD (n = 3), All grades): 2
Erythema multiforme, drug-related adverse event, patients (45 mg QOD (n = 3), All grades): 0
Fatigue, drug-related adverse event, patients (45 mg QOD (n = 3), All grades): 1
HbA1C increased, drug-related adverse event, patients (45 mg QOD (n = 3), All grades): 0
Hyperglycemia, drug-related adverse event, patients (45 mg QOD (n = 3), All grades): 1
Hypernatremia, drug-related adverse event, patients (45 mg QOD (n = 3), All grades): 0
Hypoalbuminemia, drug-related adverse event, patients (45 mg QOD (n = 3), All grades): 0
Hypokalemia, drug-related adverse event, patients (45 mg QOD (n = 3), All grades): 0
Insulin c-peptide increased, drug-related adverse event, patients (45 mg QOD (n = 3), All grades): 2
Leukopenia, drug-related adverse event, patients (45 mg QOD (n = 3), All grades): 2
Localized edema, drug-related adverse event, patients (45 mg QOD (n = 3), All grades): 0
Lymphopenia, drug-related adverse event, patients (45 mg QOD (n = 3), All grades): 2
Nausea, drug-related adverse event, patients (45 mg QOD (n = 3), All grades): 0
Neutropenia, drug-related adverse event, patients (45 mg QOD (n = 3), All grades): 2
Palmar-plantar erythrodysaesthesia syndrome, drug-related adverse event, patients (45 mg QOD (n = 3), All grades): 1
Pruritus, drug-related adverse event, patients (45 mg QOD (n = 3), All grades): 1
Pyrexia, drug-related adverse event, patients (45 mg QOD (n = 3), All grades): 1
Rash, drug-related adverse event, patients (45 mg QOD (n = 3), All grades): 3
Stomatitis, drug-related adverse event, patients (45 mg QOD (n = 3), All grades): 2
Vomiting, drug-related adverse event, patients (45 mg QOD (n = 3), All grades): 0
ALT increased, drug-related adverse event, patients (45 mg QOD (n = 3), Grades 3–5): 0
Blood creatinine increased, drug-related adverse event, patients (45 mg QOD (n = 3), Grades 3–5): 0
Decreased appetite, drug-related adverse event, patients (45 mg QOD (n = 3), Grades 3–5): 0
Diarrhea, drug-related adverse event, patients (45 mg QOD (n = 3), Grades 3–5): 1
Dry skin, drug-related adverse event, patients (45 mg QOD (n = 3), Grades 3–5): 0
Eosinophil count increased, drug-related adverse event, patients (45 mg QOD (n = 3), Grades 3–5): 0
Eosinophilia, drug-related adverse event, patients (45 mg QOD (n = 3), Grades 3–5): 0
Erythema multiforme, drug-related adverse event, patients (45 mg QOD (n = 3), Grades 3–5): 0
Fatigue, drug-related adverse event, patients (45 mg QOD (n = 3), Grades 3–5): 0
HbA1C increased, drug-related adverse event, patients (45 mg QOD (n = 3), Grades 3–5): 0
Hyperglycemia, drug-related adverse event, patients (45 mg QOD (n = 3), Grades 3–5): 0
Hypernatremia, drug-related adverse event, patients (45 mg QOD (n = 3), Grades 3–5): 0
Hypoalbuminemia, drug-related adverse event, patients (45 mg QOD (n = 3), Grades 3–5): 0
Hypokalemia, drug-related adverse event, patients (45 mg QOD (n = 3), Grades 3–5): 0
Insulin c-peptide increased, drug-related adverse event, patients (45 mg QOD (n = 3), Grades 3–5): 0
Leukopenia, drug-related adverse event, patients (45 mg QOD (n = 3), Grades 3–5): 0
Localized edema, drug-related adverse event, patients (45 mg QOD (n = 3), Grades 3–5): 0
Lymphopenia, drug-related adverse event, patients (45 mg QOD (n = 3), Grades 3–5): 2
Nausea, drug-related adverse event, patients (45 mg QOD (n = 3), Grades 3–5): 0
Neutropenia, drug-related adverse event, patients (45 mg QOD (n = 3), Grades 3–5): 1
Palmar-plantar erythrodysaesthesia syndrome, drug-related adverse event, patients (45 mg QOD (n = 3), Grades 3–5): 0
Pruritus, drug-related adverse event, patients (45 mg QOD (n = 3), Grades 3–5): 0
Pyrexia, drug-related adverse event, patients (45 mg QOD (n = 3), Grades 3–5): 0
Rash, drug-related adverse event, patients (45 mg QOD (n = 3), Grades 3–5): 0
Stomatitis, drug-related adverse event, patients (45 mg QOD (n = 3), Grades 3–5): 0
Vomiting, drug-related adverse event, patients (45 mg QOD (n = 3), Grades 3–5): 0
DLTs during Cycle 1 (45 mg QOD, three patients): No DLTs
ALT increased, drug-related adverse event, patients (60 mg QOD (n = 9), All grades): 1
Blood creatinine increased, drug-related adverse event, patients (60 mg QOD (n = 9), All grades): 1
Decreased appetite, drug-related adverse event, patients (60 mg QOD (n = 9), All grades): 1
Diarrhea, drug-related adverse event, patients (60 mg QOD (n = 9), All grades): 5
Dry skin, drug-related adverse event, patients (60 mg QOD (n = 9), All grades): 0
Eosinophil count increased, drug-related adverse event, patients (60 mg QOD (n = 9), All grades): 0
Eosinophilia, drug-related adverse event, patients (60 mg QOD (n = 9), All grades): 6
Erythema multiforme, drug-related adverse event, patients (60 mg QOD (n = 9), All grades): 0
Fatigue, drug-related adverse event, patients (60 mg QOD (n = 9), All grades): 4
HbA1C increased, drug-related adverse event, patients (60 mg QOD (n = 9), All grades): 2
Hyperglycemia, drug-related adverse event, patients (60 mg QOD (n = 9), All grades): 3
Hypernatremia, drug-related adverse event, patients (60 mg QOD (n = 9), All grades): 1
Hypoalbuminemia, drug-related adverse event, patients (60 mg QOD (n = 9), All grades): 2
Hypokalemia, drug-related adverse event, patients (60 mg QOD (n = 9), All grades): 1
Insulin c-peptide increased, drug-related adverse event, patients (60 mg QOD (n = 9), All grades): 7
Leukopenia, drug-related adverse event, patients (60 mg QOD (n = 9), All grades): 2
Localized edema, drug-related adverse event, patients (60 mg QOD (n = 9), All grades): 0
Lymphopenia, drug-related adverse event, patients (60 mg QOD (n = 9), All grades): 5
Nausea, drug-related adverse event, patients (60 mg QOD (n = 9), All grades): 1
Neutropenia, drug-related adverse event, patients (60 mg QOD (n = 9), All grades): 2
Palmar-plantar erythrodysaesthesia syndrome, drug-related adverse event, patients (60 mg QOD (n = 9), All grades): 1
Pruritus, drug-related adverse event, patients (60 mg QOD (n = 9), All grades): 4
Pyrexia, drug-related adverse event, patients (60 mg QOD (n = 9), All grades): 7
Rash, drug-related adverse event, patients (60 mg QOD (n = 9), All grades): 9
Stomatitis, drug-related adverse event, patients (60 mg QOD (n = 9), All grades): 6
Vomiting, drug-related adverse event, patients (60 mg QOD (n = 9), All grades): 0
ALT increased, drug-related adverse event, patients (60 mg QOD (n = 9), Grades 3–5): 0
Blood creatinine increased, drug-related adverse event, patients (60 mg QOD (n = 9), Grades 3–5): 0
Decreased appetite, drug-related adverse event, patients (60 mg QOD (n = 9), Grades 3–5): 0
Diarrhea, drug-related adverse event, patients (60 mg QOD (n = 9), Grades 3–5): 0
Dry skin, drug-related adverse event, patients (60 mg QOD (n = 9), Grades 3–5): 0
Eosinophil count increased, drug-related adverse event, patients (60 mg QOD (n = 9), Grades 3–5): 0
Eosinophilia, drug-related adverse event, patients (60 mg QOD (n = 9), Grades 3–5): 0
Erythema multiforme, drug-related adverse event, patients (60 mg QOD (n = 9), Grades 3–5): 0
Fatigue, drug-related adverse event, patients (60 mg QOD (n = 9), Grades 3–5): 0
HbA1C increased, drug-related adverse event, patients (60 mg QOD (n = 9), Grades 3–5): 0
Hyperglycemia, drug-related adverse event, patients (60 mg QOD (n = 9), Grades 3–5): 0
Hypernatremia, drug-related adverse event, patients (60 mg QOD (n = 9), Grades 3–5): 0
Hypoalbuminemia, drug-related adverse event, patients (60 mg QOD (n = 9), Grades 3–5): 0
Hypokalemia, drug-related adverse event, patients (60 mg QOD (n = 9), Grades 3–5): 0
Insulin c-peptide increased, drug-related adverse event, patients (60 mg QOD (n = 9), Grades 3–5): 0
Leukopenia, drug-related adverse event, patients (60 mg QOD (n = 9), Grades 3–5): 0
Localized edema, drug-related adverse event, patients (60 mg QOD (n = 9), Grades 3–5): 0
Lymphopenia, drug-related adverse event, patients (60 mg QOD (n = 9), Grades 3–5): 2
Nausea, drug-related adverse event, patients (60 mg QOD (n = 9), Grades 3–5): 0
Neutropenia, drug-related adverse event, patients (60 mg QOD (n = 9), Grades 3–5): 0
Palmar-plantar erythrodysaesthesia syndrome, drug-related adverse event, patients (60 mg QOD (n = 9), Grades 3–5): 0
Pruritus, drug-related adverse event, patients (60 mg QOD (n = 9), Grades 3–5): 0
Pyrexia, drug-related adverse event, patients (60 mg QOD (n = 9), Grades 3–5): 0
Rash, drug-related adverse event, patients (60 mg QOD (n = 9), Grades 3–5): 1
Stomatitis, drug-related adverse event, patients (60 mg QOD (n = 9), Grades 3–5): 0
Vomiting, drug-related adverse event, patients (60 mg QOD (n = 9), Grades 3–5): 0
patients with DLT during Cycle 1 [1]: One of the nine
time until the onset of the DLT after the start of treatment [1]: 28 days
DLTs during Cycle 1 (135 mg QW): no DLTs
ALT increased, drug-related adverse event, patients (135 mg QW (n = 3), All grades): 0
Blood creatinine increased, drug-related adverse event, patients (135 mg QW (n = 3), All grades): 0
Decreased appetite, drug-related adverse event, patients (135 mg QW (n = 3), All grades): 1
Diarrhea, drug-related adverse event, patients (135 mg QW (n = 3), All grades): 1
Dry skin, drug-related adverse event, patients (135 mg QW (n = 3), All grades): 1
Eosinophil count increased, drug-related adverse event, patients (135 mg QW (n = 3), All grades): 2
Eosinophilia, drug-related adverse event, patients (135 mg QW (n = 3), All grades): 1
Erythema multiforme, drug-related adverse event, patients (135 mg QW (n = 3), All grades): 0
Fatigue, drug-related adverse event, patients (135 mg QW (n = 3), All grades): 1
HbA1C increased, drug-related adverse event, patients (135 mg QW (n = 3), All grades): 1
Hyperglycemia, drug-related adverse event, patients (135 mg QW (n = 3), All grades): 2
Hypernatremia, drug-related adverse event, patients (135 mg QW (n = 3), All grades): 0
Hypoalbuminemia, drug-related adverse event, patients (135 mg QW (n = 3), All grades): 0
Hypokalemia, drug-related adverse event, patients (135 mg QW (n = 3), All grades): 1
Insulin c-peptide increased, drug-related adverse event, patients (135 mg QW (n = 3), All grades): 2
Leukopenia, drug-related adverse event, patients (135 mg QW (n = 3), All grades): 0
Localized edema, drug-related adverse event, patients (135 mg QW (n = 3), All grades): 0
Lymphopenia, drug-related adverse event, patients (135 mg QW (n = 3), All grades): 0
Nausea, drug-related adverse event, patients (135 mg QW (n = 3), All grades): 1
Neutropenia, drug-related adverse event, patients (135 mg QW (n = 3), All grades): 1
Palmar-plantar erythrodysaesthesia syndrome, drug-related adverse event, patients (135 mg QW (n = 3), All grades): 0
Pruritus, drug-related adverse event, patients (135 mg QW (n = 3), All grades): 0
Pyrexia, drug-related adverse event, patients (135 mg QW (n = 3), All grades): 0
Rash, drug-related adverse event, patients (135 mg QW (n = 3), All grades): 2
Stomatitis, drug-related adverse event, patients (135 mg QW (n = 3), All grades): 0
Vomiting, drug-related adverse event, patients (135 mg QW (n = 3), All grades): 1
ALT increased, drug-related adverse event, patients (135 mg QW (n = 3), Grades 3–5): 0
Blood creatinine increased, drug-related adverse event, patients (135 mg QW (n = 3), Grades 3–5): 0
Decreased appetite, drug-related adverse event, patients (135 mg QW (n = 3), Grades 3–5): 0
Diarrhea, drug-related adverse event, patients (135 mg QW (n = 3), Grades 3–5): 0
Dry skin, drug-related adverse event, patients (135 mg QW (n = 3), Grades 3–5): 0
Eosinophil count increased, drug-related adverse event, patients (135 mg QW (n = 3), Grades 3–5): 0
